The record followed here is patent US6127382A, “Amines substituted with a tetrahydroquinolinyl group an aryl or heteroaryl group and an alkyl group, having retinoid-like biological activity” (Allergan Sales, Inc., priority 1999, dated 2000).

The target in assay [1] is T1, RXRβ (Mus musculus, UniProt P28704).
T1 construct: expressed in transfected cells
T1 sequence (P28704 1-520): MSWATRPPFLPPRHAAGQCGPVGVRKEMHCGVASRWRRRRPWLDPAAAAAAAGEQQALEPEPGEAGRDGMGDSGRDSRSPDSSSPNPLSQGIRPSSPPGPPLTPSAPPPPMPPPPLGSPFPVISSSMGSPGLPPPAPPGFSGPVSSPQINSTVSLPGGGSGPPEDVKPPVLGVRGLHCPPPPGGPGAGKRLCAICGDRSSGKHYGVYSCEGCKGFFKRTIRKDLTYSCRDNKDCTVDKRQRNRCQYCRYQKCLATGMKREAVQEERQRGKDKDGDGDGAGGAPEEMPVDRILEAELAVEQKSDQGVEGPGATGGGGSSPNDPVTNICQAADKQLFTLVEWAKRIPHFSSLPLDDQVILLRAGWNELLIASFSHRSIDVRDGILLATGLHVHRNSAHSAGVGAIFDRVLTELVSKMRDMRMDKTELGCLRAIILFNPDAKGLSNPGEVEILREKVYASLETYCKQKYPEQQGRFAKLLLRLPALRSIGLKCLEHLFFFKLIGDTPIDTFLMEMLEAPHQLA
The experiment in a line: holoreceptor transactivation assay, RXRβ. Format: cell-based. Conditions: for EC50: holoreceptor assay, read-out: RXR Trans EC50 β; for Emax: relative to 10^-6 M cyclopropyl penta-2,4-dienoic acid reference, read-out: % efficacy, RXRβ transactivation. The text has this: (§1) Other assays described below, measure the ability of the compounds of the present invention to bind to, and/or activate various retinoid receptor subtypes. When in these assays a compound binds to a given receptor subtype and activates the transcription of a reporter gene through that subtype, then the compound is considered an agonist of that receptor subtype. […] In the below described assays the ability of the compounds to bind to RARα, RARβ, RARγ, RXRα, RXRβ and RXRγ receptors, and the ability or inability of the compounds to activate transcription of a reporter gene through these receptor subtypes can be tested. […] However, some of the compounds of the invention may behave as retinoid antagonists or partial antagonists and/or as inverse agonists. Because of the complex distribution of the different retinoid receptors in various organs of the mammalian body partial agonists and partial antagonists and compounds which have the characteristics of both may lend themselves to particularly useful therapeutic applications and may avoid serious side effects of conventional retinoid drugs.
(§2) A holoreceptor transactivation assay and a ligand binding assay which measure the antagonist/agonist like activity of the compounds of the invention, or their ability to bind to the several retinoid receptor subtypes, respectively, are described in published PCT Application No. WO WO93/11755 (particularly on pages 30-33 and 37-41) published on Jun. 24, 1993, the specification of which is also incorporated herein by reference. A detailed experimental procedure for holoreceptor transactivations has been described by Heyman et al. Cell 68, 397-406, (1992); Allegretto et al. J. Biol. Chem. 268, 26625-26633, and Mangelsdorf et al. The Retinoids: Biology, Chemistry and Medicine, pp 319-349, Raven Press Ltd., New York, which are expressly incorporated herein by reference. The results obtained in this assay are expressed in EC50 numbers, as they are also in the chimeric receptor transactivation assay. The results of ligand binding assay are expressed in Kd numbers. (See Cheng et al. Biochemical Pharmacology Vol. 22 pp 3099-3108, expressly incorporated herein by reference.)
(§3) Table 1 discloses the activity of certain exemplary compounds of the invention in the above-described chimeric receptor transactivation assay, holoreceptor transactivation assay and a ligand binding assays. Particularly, the transactivation data pertaining to RAR receptors were obtained in the chimeric assay, and the data pertaining to transactivation of RXR receptors were obtained in the holoreceptor transactivation assay.

The target of assay [2] is T2, RARα (Homo sapiens, UniProt P10276).
T2 sequence (P10276 1-462): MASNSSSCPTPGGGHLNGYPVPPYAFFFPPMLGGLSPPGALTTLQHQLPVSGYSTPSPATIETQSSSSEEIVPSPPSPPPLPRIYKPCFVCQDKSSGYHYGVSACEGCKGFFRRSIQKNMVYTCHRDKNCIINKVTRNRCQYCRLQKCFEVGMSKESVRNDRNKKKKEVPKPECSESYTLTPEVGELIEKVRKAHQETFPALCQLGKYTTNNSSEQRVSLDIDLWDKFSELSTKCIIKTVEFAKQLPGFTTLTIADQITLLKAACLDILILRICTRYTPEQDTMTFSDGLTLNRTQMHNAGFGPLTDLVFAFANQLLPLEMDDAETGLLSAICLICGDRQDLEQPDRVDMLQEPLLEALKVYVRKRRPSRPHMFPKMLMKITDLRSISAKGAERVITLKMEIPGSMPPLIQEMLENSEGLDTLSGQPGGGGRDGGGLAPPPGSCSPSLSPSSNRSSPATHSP
As to the kind of experiment: ligand binding assay, RARα. The settings on record: read-out: RAR Bind Ki α.
Text: as §1, §2, §3

In assay [3] the target is T3, RARγ (Homo sapiens, UniProt P13631).
T3 sequence (P13631 1-454): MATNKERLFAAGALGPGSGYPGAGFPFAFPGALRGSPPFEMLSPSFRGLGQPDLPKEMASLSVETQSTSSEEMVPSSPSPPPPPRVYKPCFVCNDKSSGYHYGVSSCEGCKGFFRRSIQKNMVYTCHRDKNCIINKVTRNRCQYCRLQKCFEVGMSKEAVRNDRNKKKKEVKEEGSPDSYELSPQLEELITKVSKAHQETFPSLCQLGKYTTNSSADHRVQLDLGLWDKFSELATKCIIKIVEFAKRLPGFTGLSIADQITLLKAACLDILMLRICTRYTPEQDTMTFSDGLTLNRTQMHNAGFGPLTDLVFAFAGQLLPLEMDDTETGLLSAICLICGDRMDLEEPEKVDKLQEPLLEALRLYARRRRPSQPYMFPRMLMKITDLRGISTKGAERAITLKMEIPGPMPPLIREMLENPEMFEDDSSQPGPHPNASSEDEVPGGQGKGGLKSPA
The experiment in a line: ligand binding assay, RARγ. Conditions: read-out: RAR Bind Ki γ.
Text: as §1, §2, §3

In assay [4] the target is T4, RXRβ (Homo sapiens, UniProt P28702).
T4 sequence (P28702 1-533): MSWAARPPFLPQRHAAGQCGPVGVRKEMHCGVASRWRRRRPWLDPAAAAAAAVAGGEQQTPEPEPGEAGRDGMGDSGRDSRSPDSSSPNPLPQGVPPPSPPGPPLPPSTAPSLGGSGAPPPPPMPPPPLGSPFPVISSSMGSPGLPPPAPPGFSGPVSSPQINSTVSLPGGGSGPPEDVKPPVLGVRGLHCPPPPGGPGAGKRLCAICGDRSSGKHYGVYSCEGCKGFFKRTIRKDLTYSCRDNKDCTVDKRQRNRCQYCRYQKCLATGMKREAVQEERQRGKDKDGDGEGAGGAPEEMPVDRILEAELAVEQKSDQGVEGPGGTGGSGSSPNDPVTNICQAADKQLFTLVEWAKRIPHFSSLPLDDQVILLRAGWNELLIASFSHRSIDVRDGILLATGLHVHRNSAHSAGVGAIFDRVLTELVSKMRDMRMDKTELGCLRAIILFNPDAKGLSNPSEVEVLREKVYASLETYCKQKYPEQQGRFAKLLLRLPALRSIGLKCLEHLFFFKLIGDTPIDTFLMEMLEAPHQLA
As to the kind of experiment: ligand binding assay, RXRβ. Conditions: read-out: RXR Bind Ki β.
Text: as §1, §2, §3

For the compound `CCN(c1ccc(C(=O)O)cc1)c1cc2c(cc1C)C(C)(C)CCN2C(C)C` [Compound 52, 4-[-(1-Isopropyl-4,4,6-trimethyl-1,2,3,4-tetrahydro-quinolin-7-yl)ethylamino]-benzoic acid], in assay [1], the EC50 stood at 2 nM. Besides, the Emax in assay [1] turned out to be 96%. The Ki in assay [2] was 9600 nM; in assay [3] it was 10000 nM; in assay [4], 99 nM.

Turning to `Cc1cc2c(cc1N(C)c1ccc(C(=O)O)cc1)N(C(C)C)CCC2(C)C` [Compound 51, 4-[(1-Isopropyl-4,4,6-trimethyl-1,2,3,4-tetrahydro-quinolin-7-yl)-methyl-amino]-benzoic acid], the 50% effective concentration (EC50) in assay [1] was 374 nM. The Emax in assay [1] was 119%. Moreover, the inhibition constant Ki is over 10000 nM in assay [2], over 10000 nM in assay [3] and 142 nM in assay [4].

For `CCN(c1ccc(C(=O)O)cc1)c1ccc2c(c1)N(C(C)C)CCC2(C)C` [Compound 38, 4-[(1-Isopropyl-4,4-dimethyl-1,2,3,4-tetrahydroquinolin-7-yl)ethylamino]benzoic acid], the concentration giving a half-maximal response (EC50) in assay [1] amounted to 7 nM. The Emax in assay [1] amounted to 102%. For the same compound, the Ki is over 10000 nM in assay [2], 6300 nM in assay [3] and 57 nM in assay [4].

With `Cc1cc2c(cc1N(C)c1ccc(C(=O)O)cc1)C(C)(C)CCN2C(C)C` [Compound 22, 4-[(1-Isopropyl-4,4,7-trimethyl-1,2,3,4-tetrahydroquinolin-6-yl)methylamino]benzoic acid], in assay [1], the EC50 is over 1000 nM. In addition, in assay [1], the Emax is 15%. For the same compound, the Ki in assay [2] is over 10000 nM; in assay [3], 1700 nM; in assay [4] it was 1100 nM.

The EC50 is the midpoint of the concentration-response curve. Usually Ki stands for the dissociation constant of the complex between target and ligand, obtained from inhibition or displacement.
